From PMC7400437, “Synthesis and Evaluation of the Antibacterial Activities of 13-Substituted Berberine Derivatives” (Antibiotics, 2020)
Where two headings read alike, the source gives them in different places.

Tests used:
S. aureus = test: MIC, antimicrobial activity assay; type: cell-based, Staphylococcus aureus (ATCC 6538P); details: Staphylococcus aureus
A. gandavensis = test: MIC, antimicrobial activity assay; type: cell-based, Arthrobacter gandavensis (DSM 2447); details: Arthrobacter gandavensis; Table 4, Gram-positive
B. cereus = test: MIC, antimicrobial activity assay; type: cell-based; details: Bacillus cereus; Table 4, Gram-positive
[1] = tested on: B. subtilis (Nisin-resistant); test: MIC, antimicrobial activity assay; type: cell-based, nisin-resistant B. subtilis (DSMZ 347); details: Bacillus subtilis, read-out: MIC B. subtilis (Nisin-resistant)
L. lactis = test: MIC, antimicrobial activity assay; type: cell-based, Lactococcus lactis (DSM 20481); details: Lactococcus lactis; Table 4, Gram-positive
[2] = tested on: S.aureus (Methicillin-resistant); test: MIC, antimicrobial activity assay; type: cell-based; details: Staphylococcus aureus, read-out: MIC S.aureus (Methicillin-resistant)
S. pyogenes = test: MIC, antimicrobial activity assay; type: cell-based, Streptococcus pyogenes (DSM 20565); details: Streptococcus pyogenes; Table 4, Gram-positive; anaerobic
[3] = tested on: P. aeruginosa (Quinolone-resistant); test: MIC, antimicrobial activity assay; type: cell-based; details: Pseudomonas aeruginosa, read-out: MIC P. aeruginosa (Quinolone-resistant)
S. enterica = test: MIC, antimicrobial activity assay; type: cell-based, Salmonella enterica (CIP 80.39); details: Salmonella enterica; Table 4, Gram-negative
S. flexneri = test: MIC, antimicrobial activity assay; type: cell-based, Shigella flexneri (ATCC 12022); details: Shigella flexneri; Table 4, Gram-negative
V. diabolicus = test: MIC, antimicrobial activity assay; type: cell-based; details: Vibrio diabolicus; Table 4, Gram-negative
[4] = tested on: BEAS (human airway epithelial cells); test: Cytotoxic assay on human cells (resazurin); type: cell-based; details: Epithelial cell, 48 h, means +/−SD, read-out: Inhibitory Concentration 50 (IC50) on cell viability, BEAS
Method in brief: (§1)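 Cells grown to confluence (48–72 h) were exposed for 48 h at 37 °C to 1:2 serial dilutions from 0 to 50 µM, with 0.5% DMSO as negative control. Resazurin 1:10 in PBS++ was added for 4 h, and fluorescence was read at 530/590 nm and normalized to DMSO wells. IC50 is the concentration giving 50% viability reduction.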

[5] = tested on: Caco2 (human intestinal epithelial cells); test: Cytotoxic assay on human cells (resazurin); type: cell-based; details: for IC50: Homo sapiens, Caco-2, 48 h, read-out: Inhibitory Concentration 50 (IC50) on cell viability, Caco2; for therapeutic index Caco2: IC50 on Caco2 divided by MIC on S. aureus
[6] = tested on: HepG2 (human liver cells); test: Cytotoxic assay on human cells (resazurin); type: cell-based; details: HepG2, 48 h, read-out: Inhibitory Concentration 50 (IC50) on cell viability, HEPG2
Method in brief: as §1

H. pylori = test: Bacterial membrane permeabilization assay (propidium iodide); type: cell-based, Helicobacter pylori; details: for membrane permeabilization at 4-times MIC, H. pylori: 4-times their MIC; for maximal membrane permeabilization, H. pylori: 120 min exposure to 100 µM, CTAB 300 µM = 100%
Method: (§2) Membrane permeabilization by berberine derivatives was evaluated using the cell-impermeable DNA/RNA probe propidium iodide as previously explained. Logarithmic growing bacterial suspensions were prepared from overnight bacterial suspension by 1 in 10 dilution. After 3 h incubation at 37 °C, 200 rpm, bacterial suspensions were centrifuged for 5 min at 3000 rpm. Cell pellets were then resuspended in sterile PBS at about 10^9 cells/mL. Propidium iodide (Sigma Aldrich) was then added to the suspension at a final concentration of 60 µM. 100 µL of this suspension were then transferred into 96-well black plates (Dominique Dutscher) and exposed to increasing concentrations of berberine’s derivative (from 0 to 100 µM, 1:2 dilution). […] All steps of the assay were performed in aerobic condition except for H. pylori which was done in microaerobic condition generated with GasPak unit (Sigma Aldrich). Bacteria were incubated at 37 °C and the kinetics of fluorescence variations (excitation at 530 nm and emission at 590 nm) were then recorded over time using a Synergy Mx microplate reader (Biotek). Cetyl trimethylammonium bromide (CTAB) at 300 µM was used as positive control giving 100% permeabilization. Results were expressed in % of permeabilization. All experiments were done in triplicate.

B. subtilis = test: as above; type: cell-based, Bacillus subtilis; details: for membrane permeabilization at 4-times MIC, B. subtilis: 4-times their MIC; for maximal membrane permeabilization, B. subtilis: 120 min exposure to 100 µM, CTAB 300 µM = 100%
Method: as §2

[7] = tested on: DNA extracted from H. pylori; test: DNA fragmentation assay; details: data not shown
V. alginolyticus = test: Macromolecule synthesis inhibition assay by fluorescent microscopy (morphological changes); details: 4 × MIC, 2 h, 37 °C; for Observed Morphology: DNA, V. alginolyticus: DAPI; for Observed Morphology: cell membrane, V. alginolyticus: FM4-64FX; for Known/Possible Target, V. alginolyticus: inferred from morphology
[8] = Table 1 first screening, read-out: Minimal Inhibitory Concentration (MIC) S. aureus
[9] = Table 4, Gram-positive, read-out: MIC S. aureus

COc1cc(C(=O)Cc2c3[n+](cc4c(OC)c(OC)ccc24)CCc2cc4c(cc2-3)OCO4)cc(OC)c1OC(=O)c1ccccc1 [Compound 16, 4-[2-(Berberin-13-yl)acetyl]-2,6-dimethoxyphenyl Benzoate]
MIC (S. aureus; [8]): 6.25 to 12.5 µM
MIC (S. aureus; [9]): 6.25 µM
MIC (A. gandavensis): 100 µM
MIC (B. cereus): 12.5 µM
MIC [1]: 12.5 µM
MIC (L. lactis): 6.25 to 12.5 µM
MIC [2]: 12.5 µM
MIC (S. pyogenes): 6.25 µM
MIC [3]: > 100 µM
MIC (S. enterica): > 100 µM
MIC (S. flexneri): > 100 µM
MIC (V. diabolicus): > 100 µM
IC50 [4]: > 50 µM
IC50 [5]: > 50 µM
therapeutic index Caco2 [5]: 10.36
IC50 [6]: > 50 µM
membrane permeabilization at 4-times MIC, H. pylori (H. pylori): low to no membrane permeabilization
maximal membrane permeabilization, H. pylori (H. pylori): 50–60%
membrane permeabilization at 4-times MIC, B. subtilis (B. subtilis): low to no membrane permeabilization
maximal membrane permeabilization, B. subtilis (B. subtilis): 10–15%
DNA fragmentation, H. pylori DNA [7]: failed at causing the fragmentation of DNA
Observed Morphology: cell elongation, V. alginolyticus (V. alginolyticus): 2–4 times compared to control
Observed Morphology: cells connected, V. alginolyticus (V. alginolyticus): 2–4 cells connected
Observed Morphology: DNA, V. alginolyticus (V. alginolyticus): Decondensed DNA spanning cell
Observed Morphology: cell membrane, V. alginolyticus (V. alginolyticus): Cell membrane thickening
Known/Possible Target, V. alginolyticus (V. alginolyticus): Cell wall biosynthesis

COc1ccc(C(=O)/C=C/c2ccc(Cc3c4[n+](cc5c(OC)c(OC)ccc35)CCc3cc5c(cc3-4)OCO5)cc2)c(O)c1 [Compound 25, (2E)-3-{4-[(Berberin-13-yl)methyl]phenyl}-1-(2-hydroxy-4-methoxyphenyl)prop-2-en-1-one]
MIC (S. aureus; [8]): 3.12 µM
MIC (S. aureus; [9]): 3.12 µM
MIC (A. gandavensis): 1.5 µM
MIC (B. cereus): 6.25 µM
MIC [1]: 6.25 µM
MIC (L. lactis): 1.5 to 3.12 µM
MIC [2]: 6.25 µM
MIC (S. pyogenes): 6.25 µM
MIC [3]: > 100 µM
MIC (S. enterica): > 100 µM
MIC (S. flexneri): > 100 µM
MIC (V. diabolicus): > 100 µM
IC50 [4]: 8.87 ± 1.5 µM
IC50 [5]: 10.5 ± 0.7 µM
therapeutic index Caco2 [5]: 3.37
IC50 [6]: > 50 µM
membrane permeabilization at 4-times MIC, H. pylori (H. pylori): low to no membrane permeabilization
maximal membrane permeabilization, H. pylori (H. pylori): 50–60%
membrane permeabilization at 4-times MIC, B. subtilis (B. subtilis): low to no membrane permeabilization
maximal membrane permeabilization, B. subtilis (B. subtilis): 10–15%
DNA fragmentation, H. pylori DNA [7]: failed at causing the fragmentation of DNA
Observed Morphology: cell elongation, V. alginolyticus (V. alginolyticus): 2–7 times compared to control
Observed Morphology: cells connected, V. alginolyticus (V. alginolyticus): 1–2 cells connected
Observed Morphology: DNA, V. alginolyticus (V. alginolyticus): Condensed DNA spanning the cell
Observed Morphology: cell membrane, V. alginolyticus (V. alginolyticus): Cell membrane pigmentation
Known/Possible Target, V. alginolyticus (V. alginolyticus): RNA biosynthesis
